For four compounds, IC50 and PF50 results are on record in US8552004B2, “Chemical compounds” (AstraZeneca AB, priority 2010, dated 2013).

For one experiment, the system named is HT29 cells. Put plainly: Cellular SRB assay, potentiation of carboplatin (Test (c)). It is filed as cell-based, human. The conditions noted are these: for PF50: HT29. The procedure: (c) Cellular—SRB Assay The potentiation factor (PF50) for compounds is a measure of the fold increase in effect of a chemotherapeutic agent, when used in combination with an ATR inhibitor. Specifically, this is calculated as a ratio of the IC50 of control cell growth in the presence of a chemotherapeutic agent, typically carboplatin, divided by the IC50 of cell growth in the presence of this agent and the ATR inhibitor of interest. For this purpose, HT29 cells were seeded at the appropriate density to ensure exponential growth throughout the time of the assay (typically 1000-1500 cells) in each well of a 96-well plate, in a volume of 80 μl and incubated overnight at 37° C. Subsequently, cells were dosed with either DMSO vehicle, or treated with test compounds at fixed concentrations (typically 1, 0.3 & 0.1 μM). Following a one hour incubation at 37° C., the cells were further treated with a 10 point dose response of the chemotherapeutic agent, based on it's known sensitivity (typically 30-0.001 ug/ml for carboplatin). Cells were left to grow for 5 days at 37° C., after which time cell growth was assessed using the sulforhodamine B (SRB) assay (Skehan, P et al, 1990 New colorimetric cytotoxic assay for anticancer-drug screening. J. Natl. Cancer Inst. 82, 1107-1112.). Specifically, the media was removed and cells fixed with 100 μl of ice cold 10% (w/v) trichloroacetic acid. The plates were then incubated at 4° C. for 20 minutes prior to washing 4 times with water. Each well was then stained with 100 μL of 0.4% (w/v) SRB in 1% acetic acid for 20 minutes before a further 4 washes with 1% acetic acid. Plates were then dried for 2 hours at room temperature and the dye was solubilized by the addition of 100 μL Tris Base pH 8.5 into each well. Plates were shaken before measuring optical density at 564 nm (OD564). In order to calculate the PF50, the OD564 values obtained for the dose-response curve of chemotherapeutic agent were expressed as a percentage of the value obtained from cells treated with vehicle alone. Similarly, to act as a control for inclusion of the ATR inhibitor, values from the chemotherapeutic agent tested in combination with a fixed ATR inhibitor concentration were expressed as a percentage of the value obtained from cells treated with the corresponding concentration of ATR inhibitor alone. From these internally-controlled curves, IC50 values were calculated and the PF50 was determined as the ratio of these values, as described above. Compounds are compared using the PF50 value at concentrations of ATR inhibitor that show minimal growth inhibition on their own. IC50 values were calculated with XLfit (IDBS, Surrey UK) using the dose response, 4 parameter logistic model #203. Top (max) and bottom (min) curve fitting was free and not locked to 100% to 0% respectively.

The target of experiment [1] is T1, ATR (Homo sapiens (Human), UniProt Q13535). Nature of the experiment: Enzyme Assay - ATR (Test (a)). It is filed as biochemical. The conditions noted are these: ATR from HeLa nuclear extract, GST-p53N66 substrate, 3 μM ATP, arithmetic mean. The procedure:
ATR-antibody complexes were isolated from nuclear extract by incubating with protein A-Sepharose beads (Sigma, #P3476) for 1 hour and then through centrifugation to recover the beads. […] After 10 minutes with gentle shaking, ATP was added to a final concentration of 3 μM and the reaction continued at 37° C. for an additional 1 hour. […] Enhanced chemiluminescence solution (NEN, Boston, Mass.) was used to produce a signal and chemiluminescent detection was carried out via a TopCount (Packard, Meriden, Conn.) plate reader.

The target in experiment [2] is T1, ATR. Put plainly: Cellular Assay - ATR, phosphorylation of Chk1 (Ser 345) in HT29 cells after 4NQO (Test (b)). The conditions noted are these: cell assay Test (b); pChk1 Ser345 in HT29 cells, 3 μM 4NQO; arithmetic mean. It is filed as cell-based. From the text:
ATM and ATR have distinct and overlapping responses to DNA damage. They must participate together and responses must be co-ordinated. Both pathways may be activated by ionising radiation, however only ATR is activated by UV. Since UV treatment is not practical for use in a high throughput cell assay, the UV mimetic 4NQ0 (Sigma) was chosen to activate the ATR DNA damage response pathway.
Chk1, a downstream protein kinase of ATR, plays a key role in DNA damage checkpoint control. Activation of Chk1 involves phosphorylation of Ser317 and Ser345 (regarded as the preferential target for phosphorylation/activation by ATR). […] Compounds dose ranges were created by diluting in 100% DMSO and then further into assay media (EMEM, 10% FCS, 1% glutamine) using a Labcyte Echo Acoustic dispensing instrument. Cells were plated in 384 well Costar plates at 9×10^4 cells per ml in 40 μL EMEM, 10% FCS, 1% glutamine and grown for 24 hrs. Following addition of compound the cells were incubated for 60 minutes. A final concentration of 3 μM 4NQ0 (prepared in 100% DMSO) was then added using the Labcyte Echo and the cells incubated for a further 60mins. The cells are then fixed by adding 40 μL 3.7% v/v formaldehyde solution for 20 minutes. After removal of fix, cells were washed with PBS and permeabilised in 40 μL of PBS containing 0.1% Triton™ X-100. Cells are then washed and 15 μl primary antibody solution (pChk1 Ser345) added and the plates incubated at 4° C. overnight. […] The plates are washed and left in 40 μl PBS. Plates were then read on an ArrayS can Vti instrument to determine staining intensities, and dose responses were obtained and used to determine the IC50 values for the compounds.

[3] abbreviates: potentiation factor of Carboplatin at 0.03 uM ATR inhibitor.
Setting [4] is: potentiation factor of Carboplatin at 0.1 uM ATR inhibitor.
The mark [5] stands for this setting: potentiation factor of Carboplatin at 0.3 uM ATR inhibitor.
[6] abbreviates: Homo sapiens, HT-29, HT29 cell growth, IC50 of Carboplatin + 0.03 uM ATR inhibitor, read-out: IC50.
The mark [7] stands for this setting: Homo sapiens, HT-29, HT29 cell growth, IC50 of Carboplatin + 0.1 uM ATR inhibitor, read-out: IC50.
The mark [8] stands for this setting: Homo sapiens, HT-29, HT29 cell growth, IC50 of Carboplatin + 0.3 uM ATR inhibitor, read-out: IC50.

“And” between values parts separate entries of the source, which are not always exact repeats. Identical values can stand only once. Like-named read-outs stand apart in the source and are kept apart here.

T1 sequence (Q13535 whole entry): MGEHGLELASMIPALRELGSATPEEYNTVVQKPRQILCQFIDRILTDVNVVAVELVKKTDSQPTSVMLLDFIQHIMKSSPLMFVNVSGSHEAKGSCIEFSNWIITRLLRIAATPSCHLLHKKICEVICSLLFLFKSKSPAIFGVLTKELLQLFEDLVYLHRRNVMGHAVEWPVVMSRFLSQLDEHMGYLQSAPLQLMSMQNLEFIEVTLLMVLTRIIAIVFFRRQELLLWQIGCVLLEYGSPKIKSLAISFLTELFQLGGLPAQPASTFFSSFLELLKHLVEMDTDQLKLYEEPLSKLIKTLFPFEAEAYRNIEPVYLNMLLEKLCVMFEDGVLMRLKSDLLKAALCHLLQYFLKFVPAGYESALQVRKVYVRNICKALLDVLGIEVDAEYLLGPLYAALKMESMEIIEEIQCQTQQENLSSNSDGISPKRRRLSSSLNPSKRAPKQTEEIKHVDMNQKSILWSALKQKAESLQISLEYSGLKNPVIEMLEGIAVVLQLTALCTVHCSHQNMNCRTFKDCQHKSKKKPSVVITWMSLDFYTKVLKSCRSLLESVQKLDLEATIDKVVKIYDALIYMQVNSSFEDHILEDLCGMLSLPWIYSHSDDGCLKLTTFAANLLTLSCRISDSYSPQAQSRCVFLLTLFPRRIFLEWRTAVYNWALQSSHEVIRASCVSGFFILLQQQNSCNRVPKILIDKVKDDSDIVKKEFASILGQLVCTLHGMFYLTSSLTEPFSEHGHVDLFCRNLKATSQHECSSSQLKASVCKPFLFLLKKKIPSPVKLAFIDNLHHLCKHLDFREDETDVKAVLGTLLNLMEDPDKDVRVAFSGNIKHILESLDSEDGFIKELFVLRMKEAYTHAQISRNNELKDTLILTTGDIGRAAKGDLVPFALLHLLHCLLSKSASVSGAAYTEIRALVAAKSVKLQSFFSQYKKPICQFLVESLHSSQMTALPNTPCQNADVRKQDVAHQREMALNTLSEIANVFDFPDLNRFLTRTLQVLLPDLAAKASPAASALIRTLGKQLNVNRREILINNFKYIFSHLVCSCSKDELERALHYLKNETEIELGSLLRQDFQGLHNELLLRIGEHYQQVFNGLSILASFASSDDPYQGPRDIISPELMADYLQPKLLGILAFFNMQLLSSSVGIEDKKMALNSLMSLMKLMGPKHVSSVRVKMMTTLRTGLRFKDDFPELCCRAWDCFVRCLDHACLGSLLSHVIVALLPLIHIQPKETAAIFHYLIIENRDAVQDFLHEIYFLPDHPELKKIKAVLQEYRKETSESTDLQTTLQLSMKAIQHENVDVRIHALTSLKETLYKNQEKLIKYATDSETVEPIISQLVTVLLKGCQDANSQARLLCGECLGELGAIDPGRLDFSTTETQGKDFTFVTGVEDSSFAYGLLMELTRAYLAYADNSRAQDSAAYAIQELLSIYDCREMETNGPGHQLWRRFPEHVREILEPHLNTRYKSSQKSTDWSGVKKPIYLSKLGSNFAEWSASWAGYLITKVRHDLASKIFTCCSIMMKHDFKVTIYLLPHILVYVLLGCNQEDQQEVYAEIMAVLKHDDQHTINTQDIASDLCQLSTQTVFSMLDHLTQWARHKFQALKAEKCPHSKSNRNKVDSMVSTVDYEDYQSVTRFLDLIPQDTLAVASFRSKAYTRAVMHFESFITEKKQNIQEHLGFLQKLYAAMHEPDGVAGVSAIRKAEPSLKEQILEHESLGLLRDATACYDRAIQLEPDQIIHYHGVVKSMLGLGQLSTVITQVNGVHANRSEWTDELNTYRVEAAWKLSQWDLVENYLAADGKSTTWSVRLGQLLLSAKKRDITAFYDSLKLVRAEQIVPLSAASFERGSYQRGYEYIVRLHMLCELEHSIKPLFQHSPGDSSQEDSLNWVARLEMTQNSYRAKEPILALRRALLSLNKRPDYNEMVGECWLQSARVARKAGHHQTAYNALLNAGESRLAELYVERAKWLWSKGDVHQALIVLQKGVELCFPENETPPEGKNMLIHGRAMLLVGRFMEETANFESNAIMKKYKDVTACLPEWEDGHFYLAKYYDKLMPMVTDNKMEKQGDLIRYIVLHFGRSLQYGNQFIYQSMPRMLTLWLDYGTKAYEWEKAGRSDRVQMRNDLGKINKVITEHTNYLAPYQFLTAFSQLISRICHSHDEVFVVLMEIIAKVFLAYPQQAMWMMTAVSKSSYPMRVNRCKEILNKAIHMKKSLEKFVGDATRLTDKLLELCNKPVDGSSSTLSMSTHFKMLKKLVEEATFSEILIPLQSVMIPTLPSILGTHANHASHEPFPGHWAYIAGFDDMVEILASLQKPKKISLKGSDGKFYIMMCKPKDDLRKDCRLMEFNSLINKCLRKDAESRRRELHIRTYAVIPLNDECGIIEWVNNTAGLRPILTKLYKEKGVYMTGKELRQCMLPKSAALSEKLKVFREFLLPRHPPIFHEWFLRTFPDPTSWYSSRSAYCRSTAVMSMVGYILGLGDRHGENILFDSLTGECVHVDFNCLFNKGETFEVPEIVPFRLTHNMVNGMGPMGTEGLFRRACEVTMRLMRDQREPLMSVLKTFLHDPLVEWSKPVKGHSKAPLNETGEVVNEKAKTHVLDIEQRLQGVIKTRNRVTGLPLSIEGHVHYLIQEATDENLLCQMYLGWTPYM
T1 sequence (Q8WXE1 whole entry partner): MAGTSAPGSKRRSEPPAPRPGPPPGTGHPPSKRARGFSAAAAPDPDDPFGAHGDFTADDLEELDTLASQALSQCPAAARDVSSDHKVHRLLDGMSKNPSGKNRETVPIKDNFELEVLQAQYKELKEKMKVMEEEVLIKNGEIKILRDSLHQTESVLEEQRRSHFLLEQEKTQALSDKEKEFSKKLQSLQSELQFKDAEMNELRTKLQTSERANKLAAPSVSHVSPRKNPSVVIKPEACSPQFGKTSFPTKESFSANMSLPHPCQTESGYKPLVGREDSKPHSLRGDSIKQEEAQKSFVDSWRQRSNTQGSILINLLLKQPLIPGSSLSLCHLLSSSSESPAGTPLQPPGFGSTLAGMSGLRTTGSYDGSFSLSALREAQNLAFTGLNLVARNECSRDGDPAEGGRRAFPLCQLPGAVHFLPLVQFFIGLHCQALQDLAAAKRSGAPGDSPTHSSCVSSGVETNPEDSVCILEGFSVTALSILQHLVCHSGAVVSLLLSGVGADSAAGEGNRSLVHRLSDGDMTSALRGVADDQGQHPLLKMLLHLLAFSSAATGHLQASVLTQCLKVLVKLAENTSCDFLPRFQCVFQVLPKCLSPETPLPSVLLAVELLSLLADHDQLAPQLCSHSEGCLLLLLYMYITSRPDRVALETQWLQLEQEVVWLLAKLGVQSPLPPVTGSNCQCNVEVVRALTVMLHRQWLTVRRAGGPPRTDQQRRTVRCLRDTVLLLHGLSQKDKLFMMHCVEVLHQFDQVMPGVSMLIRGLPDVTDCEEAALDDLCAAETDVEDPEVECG

On to `N.N.O=C([O-])C1(C(=O)[O-])CCC1.[Pt+2]` [Carboplatin, reference compound], for which the IC50 (in general, the concentration needed to halve the response being measured) in the experiment on HT29 cells (HT29 cell growth, Carboplatin alone, 5 days, SRB) is 12.519 µg/mL and 11.798 µg/mL.
With `C[C@@H]1COCCN1c1cc(C[S@](C)(=N)=O)nc(-c2ccnc3[nH]ccc23)n1` [Example 1.01, 4-{4-[(3R)-3-Methylmorpholin-4-yl]-6-[((R)—S-methylsulfonimidoyl)methyl]pyrimidin-2-yl}-1H-pyrrolo[2,3-b]pyridine], the IC50 is 0.034 µM on ATR [1] and 0.581 µM on ATR [2].
In the case of `C[C@@H]1COCCN1c1cc(C2([S@](C)(=N)=O)CC2)nc(-c2ccnc3[nH]ccc23)n1` [Example 2.02, 4-{4-[(3R)-3-Methylmorpholin-4-yl]-6-[1-((R)—S-methylsulfonimidoyl)cyclopropyl]pyrimidin-2-yl}-1H-pyrrolo[2,3-b]pyridine], the PF50 is reported as 1.331 with HT29 cells (setting [3]), 1.966 with HT29 cells (setting [4]) and 4.211 in the experiment with HT29 cells (setting [5]). Besides, the IC50 is 9.39 µg/mL with HT29 cells (setting [6]), 6.37 µg/mL in the experiment on HT29 cells (setting [7]) and 2.99 µg/mL with HT29 cells (setting [8]).
For `CNc1nc2ccccc2n1-c1nc(N2CCOC[C@H]2C)cc(C2([S@](C)(=N)=O)CC2)n1` [Example 2.03, N-Methyl-1-{4-[(3R)-3-methylmorpholin-4-yl]-6-[1-((R)—S-methylsulfonimidoyl)cyclopropyl]pyrimidin-2-yl}-1H-benzimidazol-2-amine], the PF50 with HT29 cells (setting [3]) amounted to 2.057; with HT29 cells (setting [4]) it was 5.887; in the experiment with HT29 cells (setting [5]) it was 18.721. Further, the IC50 with HT29 cells (setting [6]) was found to be 5.74 µg/mL; in the experiment on HT29 cells (setting [7]), 2.01 µg/mL; in the experiment on HT29 cells (setting [8]), 0.63 µg/mL.
